# Experiments:
# Assay in all cases: relative viability (nuclei count vs DMSO), 5 days (fraction); higher = more cells survive
# Dabrafenib + Luminespib = compound: CC(C)(C)c1nc(-c2cccc(NS(=O)(=O)c3c(F)cccc3F)c2F)c(-c2ccnc(N)n2)s1 [Dabrafenib] + CCNC(=O)c1noc(-c2cc(C(C)C)c(O)cc2O)c1-c1ccc(CN2CCOCC2)cc1 [Luminespib] (partner 0.01 µM)
# Outline: (§1)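 Values are medians from duplicate plates. Each reflects relative viability, defined as the nuclei count of treated wells over that of vehicle wells. Lung cancer cell lines in 1536-well plates were pin-tool dosed one day after seeding with one drug alone or with a fixed anchor-drug dose plus five library-drug doses (not always all listed) in √10 steps, then fixed, stained and imaged at 4× after 5 days.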
# Dabrafenib + Phenformin = compound: CC(C)(C)c1nc(-c2cccc(NS(=O)(=O)c3c(F)cccc3F)c2F)c(-c2ccnc(N)n2)s1 [Dabrafenib] + N=C(N)NC(=N)NCCc1ccccc1 [Phenformin] (partner 250 µM)
# Outline: as §1
# Dabrafenib + Decitabine = compound: CC(C)(C)c1nc(-c2cccc(NS(=O)(=O)c3c(F)cccc3F)c2F)c(-c2ccnc(N)n2)s1 [Dabrafenib] + Nc1ncn([C@H]2C[C@H](O)[C@@H](CO)O2)c(=O)n1 [Decitabine] (partner 2 µM)
# Outline: as §1
# VX-702 + Linsitinib = compound: NC(=O)c1ccc(N(C(N)=O)c2c(F)cccc2F)nc1-c1ccc(F)cc1F [VX-702] + C[C@]1(O)C[C@@H](c2nc(-c3ccc4ccc(-c5ccccc5)nc4c3)c3c(N)nccn32)C1 [Linsitinib] (partner 1 µM)
# Outline: as §1
Cell Line,relative viability (Dabrafenib + Luminespib; first compound 0.003 µM),relative viability (Dabrafenib + Luminespib; first compound 0.009487 µM),relative viability (Dabrafenib + Luminespib; first compound 0.03 µM),relative viability (Dabrafenib + Luminespib; first compound 0.09487 µM),relative viability (Dabrafenib + Luminespib; first compound 0.3 µM),relative viability (Dabrafenib + Phenformin; first compound 0.003 µM),relative viability (Dabrafenib + Phenformin; first compound 0.009487 µM),relative viability (Dabrafenib + Phenformin; first compound 0.03 µM),relative viability (Dabrafenib + Phenformin; first compound 0.09487 µM),relative viability (Dabrafenib + Phenformin; first compound 0.3 µM),relative viability (Dabrafenib + Decitabine; first compound 0.003 µM),relative viability (Dabrafenib + Decitabine; first compound 0.009487 µM),relative viability (Dabrafenib + Decitabine; first compound 0.03 µM),relative viability (Dabrafenib + Decitabine; first compound 0.09487 µM),relative viability (Dabrafenib + Decitabine; first compound 0.3 µM),relative viability (VX-702 + Linsitinib; first compound 0.02 µM),relative viability (VX-702 + Linsitinib; first compound 0.2 µM),relative viability (VX-702 + Linsitinib; first compound 0.6325 µM),relative viability (VX-702 + Linsitinib; first compound 2 µM)
HOP-62,0.936,0.878,0.977,0.795,0.872,0.518,0.604,0.627,0.491,0.495,0.216,0.183,0.221,0.188,0.217,0.918,0.851,1.04,1.05
IA-LM,–,–,–,–,–,–,–,–,–,–,–,–,–,–,–,0.585,0.723,0.606,0.557
LC-2-ad,–,1.16,1.27,1.04,0.947,–,0.594,0.587,0.517,0.621,0.749,0.753,0.776,0.771,0.689,0.778,0.799,0.922,0.885
LCLC-97TM1,0.764,0.745,0.584,0.756,0.775,0.339,0.398,0.415,0.328,0.259,–,0.19,0.184,0.197,0.194,0.131,0.189,0.172,0.207
LCLC-103H,0.971,1.01,0.923,0.897,1.01,0.304,0.35,0.328,0.345,0.331,0.724,0.776,0.696,0.658,0.745,1.23,0.954,1.12,1
LK-2,0.185,0.187,–,0.153,0.157,0.38,0.573,–,0.475,0.603,0.225,0.287,–,0.326,0.22,0.711,0.436,–,0.542
LOU-NH91,0.262,0.36,0.28,0.343,0.294,0.417,0.808,0.645,0.707,0.92,–,0.868,0.845,0.838,0.861,1.01,0.926,0.933,0.687
LU99A,0.203,0.212,0.225,0.3,0.29,0.907,0.883,0.887,0.862,0.671,0.965,0.954,0.708,0.85,0.907,0.511,0.517,0.466,0.515
LXF-289,0.651,0.73,0.675,0.589,0.752,0.364,0.511,0.487,0.493,0.542,0.353,0.353,0.372,0.397,0.351,0.941,0.961,0.931,0.96
NCI-H23,–,–,0.225,0.195,0.226,–,0.816,0.762,0.51,0.687,–,0.343,0.352,0.333,0.32,0.517,0.528,0.545,0.754
NCI-H322M,–,1.05,0.692,0.856,0.803,–,0.86,0.579,0.744,0.502,–,0.72,–,0.656,0.737,0.999,0.905,0.918,0.883
NCI-H358,–,0.396,0.35,–,0.237,0.193,0.457,0.467,0.344,0.419,0.198,0.198,0.186,0.195,0.152,0.748,0.728,0.613,0.963
NCI-H441,–,0.317,0.389,0.461,0.347,–,1.04,1,0.548,0.563,–,0.253,0.279,0.247,0.203,0.699,0.429,0.369,0.747
NCI-H522,–,1.05,1.11,–,1.3,–,0.654,0.616,0.628,0.634,–,0.675,0.64,0.755,0.666,–,–,–,–
NCI-H1299,–,–,–,–,–,–,–,–,–,–,–,–,–,–,–,1.17,0.999,1.06,1.09
NCI-H1563,0.48,0.491,0.508,0.515,0.574,0.622,0.667,0.653,0.752,0.748,–,–,–,–,–,1.23,1.15,1.18,1.14
NCI-H1623,–,0.534,0.479,0.579,0.553,–,0.611,0.572,0.602,0.682,–,–,–,–,–,–,–,–,–
NCI-H1648,–,–,–,–,–,–,–,–,–,–,0.599,0.463,–,0.372,0.495,–,–,–,–
NCI-H1650,0.172,0.201,0.229,0.221,0.188,0.347,0.424,0.457,0.495,0.631,0.415,0.389,0.395,0.387,0.329,–,–,–,–
NCI-H1703,–,–,–,–,–,–,–,–,–,–,–,–,–,–,–,0.531,0.717,0.937,1.26
NCI-H2170,0.759,0.792,0.73,0.568,0.604,0.4,0.367,0.385,0.384,0.421,0.47,0.472,0.423,0.42,0.36,–,–,–,–
NCI-H2228,–,0.184,0.147,0.118,0.165,–,0.326,0.289,0.37,0.258,–,–,–,–,–,0.724,0.671,0.685,0.761
NCI-H2342,0.666,0.563,0.707,0.769,0.842,0.444,0.599,0.546,0.653,0.612,0.748,0.723,0.657,0.781,0.774,–,–,–,–
